Data on one compound can be found in ChEMBL document CHEMBL3526034 (Drug Metab Dispos, 2013).

In one data set the target is CYP2D6 (Homo sapiens, UniProt P10635). As to the kind of experiment: Inhibition of CYP2D6 in human liver microsomes using bufuralol as substrate at 100 uM preincubated for 20 mins with substrate prior to initiation of reaction with NADPH by HPLC analysis. The class given is ADME. To be noted: probe bufuralol. A general note: Liver microsomes are vesicles of endoplasmic reticulum, rich in cytochrome P450 enzymes.

A further data set deals with UGT1A1 (Homo sapiens, UniProt P22309). Briefly: Inhibition of human recombinant UGT1A1 expressed in supersomes assessed as scopoletin glucuronidation at 100 uM by fluorescence analysis. Format: ADME. As to conditions: probe scopoletin.
A further data set deals with Cytochrome P450 2A6 (Homo sapiens, UniProt P11509). Briefly: Metabolism-dependent inhibition of CYP2A6 in human liver microsomes using coumarin as substrate preincubated for 20 mins with NADPH prior to initiation of reaction with probe substrate by HPLC analysis. The class given is ADME.
For a further data set, the target named is Cytochrome P450 2D6 (Homo sapiens, UniProt P10635). As to the kind of experiment: Metabolism-dependent inhibition of CYP2D6 in human liver microsomes using bufuralol as substrate preincubated for 20 mins with NADPH prior to initiation of reaction with probe substrate by HPLC analysis. The class given is ADME.
Data set [1] has as its target Solute carrier organic anion transporter family member 1B3 (Homo sapiens, UniProt Q9NPD5). Briefly: Inhibition of human OATP1B3 expressed in BacMam baculovirus virus infected HEK MSR2 cells using [3H]estradiol 17beta-D-glucuronide as substrate by liquid scintillation counting analysis. Format: ADME, HEK293.
In another data set the target is T1, BCRP (ABCG2) (Homo sapiens, UniProt Q9UNQ0).
T1 sequence (Q9UNQ0 whole entry): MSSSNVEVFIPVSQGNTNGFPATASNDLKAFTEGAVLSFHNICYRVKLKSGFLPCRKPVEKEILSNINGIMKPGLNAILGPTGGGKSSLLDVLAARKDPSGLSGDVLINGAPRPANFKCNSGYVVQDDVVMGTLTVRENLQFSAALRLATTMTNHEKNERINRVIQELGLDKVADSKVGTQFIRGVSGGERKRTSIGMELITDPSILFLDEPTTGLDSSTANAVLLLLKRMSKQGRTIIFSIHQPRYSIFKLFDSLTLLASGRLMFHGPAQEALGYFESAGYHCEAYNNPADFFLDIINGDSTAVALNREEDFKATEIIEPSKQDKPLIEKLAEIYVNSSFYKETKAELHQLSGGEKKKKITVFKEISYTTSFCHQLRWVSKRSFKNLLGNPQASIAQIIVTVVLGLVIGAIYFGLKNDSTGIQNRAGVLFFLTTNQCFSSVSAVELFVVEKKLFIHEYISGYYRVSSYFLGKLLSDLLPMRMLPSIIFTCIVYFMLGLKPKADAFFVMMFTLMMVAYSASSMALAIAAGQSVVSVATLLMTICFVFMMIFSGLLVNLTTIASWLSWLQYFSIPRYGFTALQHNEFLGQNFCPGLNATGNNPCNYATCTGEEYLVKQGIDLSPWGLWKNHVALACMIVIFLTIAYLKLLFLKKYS
As to the kind of experiment: Activity at human BCRP expressed in MDCK2 cells assessed as basolateral to apical mass balance at 3 uM by liquid scintillation counting analysis in presence of 3 uM P-gp and BCRP inhibitor GF120918. Format: ADME, cell-based, MDCK-II. As to conditions: with GF120918 (P-gp and BCRP inhibitor), read-out: Activity.

The next data set addresses T2, Cytochrome P450 2C8 (Homo sapiens, UniProt P10632).
T2 sequence (P10632 whole entry): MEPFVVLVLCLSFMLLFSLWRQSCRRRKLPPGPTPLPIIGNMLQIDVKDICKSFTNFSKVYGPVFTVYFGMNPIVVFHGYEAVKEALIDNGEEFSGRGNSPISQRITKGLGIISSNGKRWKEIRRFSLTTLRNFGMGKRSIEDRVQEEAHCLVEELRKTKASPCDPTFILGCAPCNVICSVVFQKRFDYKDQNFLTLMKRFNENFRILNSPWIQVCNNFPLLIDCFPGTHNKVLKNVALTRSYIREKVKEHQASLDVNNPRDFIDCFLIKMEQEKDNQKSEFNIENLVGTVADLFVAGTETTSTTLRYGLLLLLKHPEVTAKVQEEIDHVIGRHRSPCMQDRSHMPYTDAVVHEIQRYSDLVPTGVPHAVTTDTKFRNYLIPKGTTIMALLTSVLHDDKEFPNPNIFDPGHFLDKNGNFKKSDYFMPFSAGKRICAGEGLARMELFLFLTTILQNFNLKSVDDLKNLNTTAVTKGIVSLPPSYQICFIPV
Briefly: Inhibition of CYP2C8 in human liver microsomes using rosiglitazone as substrate preincubated for 20 mins with substrate prior to initiation of reaction with NADPH by HPLC analysis. The class given is ADME.

The target in data set [2] is T3, UDP-glucuronosyltransferase 1A1 (Homo sapiens, UniProt P22309).
T3 sequence (P22309 whole entry): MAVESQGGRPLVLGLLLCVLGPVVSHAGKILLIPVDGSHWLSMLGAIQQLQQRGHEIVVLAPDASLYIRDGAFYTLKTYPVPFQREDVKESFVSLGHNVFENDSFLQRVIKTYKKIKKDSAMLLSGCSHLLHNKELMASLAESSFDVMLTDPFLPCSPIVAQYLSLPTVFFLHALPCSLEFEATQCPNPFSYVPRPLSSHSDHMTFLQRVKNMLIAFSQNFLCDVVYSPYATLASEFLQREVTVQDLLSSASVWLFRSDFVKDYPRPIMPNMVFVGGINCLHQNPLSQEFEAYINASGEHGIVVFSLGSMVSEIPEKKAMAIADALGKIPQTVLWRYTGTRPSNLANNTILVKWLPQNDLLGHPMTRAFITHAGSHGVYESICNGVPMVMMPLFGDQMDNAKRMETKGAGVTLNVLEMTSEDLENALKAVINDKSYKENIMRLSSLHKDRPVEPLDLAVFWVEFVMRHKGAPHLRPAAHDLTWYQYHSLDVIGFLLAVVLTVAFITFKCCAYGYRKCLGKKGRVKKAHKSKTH
As to the kind of experiment: Drug metabolism assessed as UDPGA-fortified human recombinant UGT1A1-mediated DTG glucuronide metabolite ((2S,3S,4S,5R,6S)-6-((4R,12aS)-9-(2,4-difluorobenzylcarbamoyl)-4-methyl-6,8-dioxo-3,4,6,8,12,12a-hexahydro-2H-[1,3]oxazino[3,2-d]pyrido[1,2-a]pyrazin-7-yloxy)-3,4,5-trihydroxytetrahydro-2H-pyran-2-carboxylic acid) formation at 16 uM after 120 mins by radio-HPLC analysis. As to conditions: recombinant enzyme. The class given is ADME.

The target in data set [3] is UDP-glucuronosyltransferase 1A9 (Homo sapiens, UniProt O60656). As to the kind of experiment: Drug metabolism assessed as UDPGA-fortified human recombinant UGT1A9-mediated DTG glucuronide metabolite ((2S,3S,4S,5R,6S)-6-((4R,12aS)-9-(2,4-difluorobenzylcarbamoyl)-4-methyl-6,8-dioxo-3,4,6,8,12,12a-hexahydro-2H-[1,3]oxazino[3,2-d]pyrido[1,2-a]pyrazin-7-yloxy)-3,4,5-trihydroxytetrahydro-2H-pyran-2-carboxylic acid) formation at 16 uM after 120 mins by radio-HPLC analysis. Format: ADME. To be noted: recombinant enzyme.

Data set [4] in a line: Drug metabolism in human hepatocytes assessed as DTG glucuronide metabolite ((2S,3S,4S,5R,6S)-6-((4R,12aS)-9-(2,4-difluorobenzylcarbamoyl)-4-methyl-6,8-dioxo-3,4,6,8,12,12a-hexahydro-2H-[1,3]oxazino[3,2-d]pyrido[1,2-a]pyrazin-7-yloxy)-3,4,5-trihydroxytetrahydro-2H-pyran-2-carboxylic acid) formation at 50 uM after 4 to 20 hrs by radio-HPLC analysis. The class given is ADME, cell-based, Hepatocyte.

Sequence of Solute carrier organic anion transporter family member 1B3 (Q9NPD5 whole entry): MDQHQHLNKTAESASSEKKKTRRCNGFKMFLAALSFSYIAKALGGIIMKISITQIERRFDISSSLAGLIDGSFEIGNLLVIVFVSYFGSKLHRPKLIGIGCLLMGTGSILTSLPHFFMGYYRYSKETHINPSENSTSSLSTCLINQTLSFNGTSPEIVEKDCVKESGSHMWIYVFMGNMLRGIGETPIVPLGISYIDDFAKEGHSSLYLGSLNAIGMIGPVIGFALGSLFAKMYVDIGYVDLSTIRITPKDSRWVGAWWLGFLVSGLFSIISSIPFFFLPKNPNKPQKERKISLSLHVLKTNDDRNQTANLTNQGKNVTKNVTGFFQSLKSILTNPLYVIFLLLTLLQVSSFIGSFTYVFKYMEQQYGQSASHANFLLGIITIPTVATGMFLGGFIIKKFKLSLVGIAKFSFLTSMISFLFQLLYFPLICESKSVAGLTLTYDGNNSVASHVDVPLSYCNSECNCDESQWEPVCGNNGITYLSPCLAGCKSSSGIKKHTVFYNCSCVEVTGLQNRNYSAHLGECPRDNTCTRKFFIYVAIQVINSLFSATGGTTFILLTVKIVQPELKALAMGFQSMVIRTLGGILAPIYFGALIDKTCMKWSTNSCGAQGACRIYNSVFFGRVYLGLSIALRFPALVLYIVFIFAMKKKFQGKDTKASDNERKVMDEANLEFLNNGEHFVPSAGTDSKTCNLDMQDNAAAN
Sequence of CYP2D6 (P10635 whole entry): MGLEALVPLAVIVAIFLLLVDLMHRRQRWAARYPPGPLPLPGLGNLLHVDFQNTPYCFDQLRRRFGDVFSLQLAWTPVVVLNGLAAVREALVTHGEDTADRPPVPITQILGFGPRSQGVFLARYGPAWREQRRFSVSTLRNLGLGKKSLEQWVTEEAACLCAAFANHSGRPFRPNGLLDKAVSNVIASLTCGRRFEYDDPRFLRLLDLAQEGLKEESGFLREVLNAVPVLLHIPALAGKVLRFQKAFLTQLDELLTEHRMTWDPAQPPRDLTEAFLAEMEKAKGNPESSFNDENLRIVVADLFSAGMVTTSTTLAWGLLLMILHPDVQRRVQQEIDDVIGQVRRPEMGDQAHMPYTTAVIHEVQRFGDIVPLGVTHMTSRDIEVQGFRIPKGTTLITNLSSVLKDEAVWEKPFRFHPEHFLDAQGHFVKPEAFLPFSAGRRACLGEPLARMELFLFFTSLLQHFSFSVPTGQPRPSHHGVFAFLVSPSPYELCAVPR
Sequence of Cytochrome P450 2D6 (P10635 whole entry): as above
Sequence of UDP-glucuronosyltransferase 1A9 (O60656 whole entry): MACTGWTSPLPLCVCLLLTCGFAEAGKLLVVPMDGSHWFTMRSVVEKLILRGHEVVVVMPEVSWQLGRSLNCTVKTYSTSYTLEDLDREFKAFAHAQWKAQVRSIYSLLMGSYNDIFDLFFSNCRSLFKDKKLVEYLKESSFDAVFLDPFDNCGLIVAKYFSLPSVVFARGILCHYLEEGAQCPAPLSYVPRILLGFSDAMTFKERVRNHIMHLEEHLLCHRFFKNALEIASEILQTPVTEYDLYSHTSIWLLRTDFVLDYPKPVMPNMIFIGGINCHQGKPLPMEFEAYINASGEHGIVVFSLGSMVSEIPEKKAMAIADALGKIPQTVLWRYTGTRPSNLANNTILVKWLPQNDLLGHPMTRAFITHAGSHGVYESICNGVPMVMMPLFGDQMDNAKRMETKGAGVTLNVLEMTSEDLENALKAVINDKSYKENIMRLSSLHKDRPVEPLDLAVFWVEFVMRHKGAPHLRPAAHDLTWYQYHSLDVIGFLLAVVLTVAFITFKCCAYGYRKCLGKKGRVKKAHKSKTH
Sequence of Cytochrome P450 2A6 (P11509 whole entry): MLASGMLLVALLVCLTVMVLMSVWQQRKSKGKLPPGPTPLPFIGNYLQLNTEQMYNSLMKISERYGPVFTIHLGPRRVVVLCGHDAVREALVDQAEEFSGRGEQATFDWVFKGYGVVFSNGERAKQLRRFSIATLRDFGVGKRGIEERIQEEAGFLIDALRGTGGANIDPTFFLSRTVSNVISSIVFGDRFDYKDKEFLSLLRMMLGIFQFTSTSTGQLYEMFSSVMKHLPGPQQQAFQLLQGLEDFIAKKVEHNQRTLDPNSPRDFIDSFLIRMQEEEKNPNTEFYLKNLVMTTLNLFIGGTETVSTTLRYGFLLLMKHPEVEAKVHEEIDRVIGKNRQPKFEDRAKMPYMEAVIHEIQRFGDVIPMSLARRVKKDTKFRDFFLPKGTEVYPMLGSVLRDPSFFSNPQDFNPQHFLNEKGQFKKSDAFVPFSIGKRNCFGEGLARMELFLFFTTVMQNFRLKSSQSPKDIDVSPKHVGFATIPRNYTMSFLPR

As usually defined, the inhibition is the relative decrease from the control value, in per cent. The IC50 is the concentration that inhibits the measured activity by half. A high value points to lower potency. Turning to `C[C@@H]1CCO[C@H]2Cn3cc(C(=O)NCc4ccc(F)cc4F)c(=O)c(O)c3C(=O)N12` [DOLUTEGRAVIR], the inhibition at 100 µM against CYP2D6 was 20%; on UGT1A1, 33%. Further, the IC50 (against Cytochrome P450 2A6; against Cytochrome P450 2D6; in [1]; on Cytochrome P450 2C8) was greater than 100 µM each time. In addition, at BCRP (ABCG2), the recovery at 3 µM was 76%. The Drug metabolism entry in [2], in data set [3] and in [4] was “metabolite_detected” throughout.
